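Values below derive from 48-hour exposures of cells grown in 96-well plates, with endpoints linearly interpolated between the two concentrations bracketing the appropriate inhibition level. Here, GI50 denotes the concentration required for 50% inhibition of growth.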 Calls of active or inactive are those of the source. No stated cut-off is given here; in the data, active = GI50 up to about 1.1 µM and inactive = higher.
How the values were obtained:
Test in all cases: NCI-60 cell line screen, 48 h
SW-620 = system: SW-620
RXF 393 = system: RXF 393
OVCAR-5 = system: OVCAR-5
HCT-116 = system: HCT-116
NCI-H460 = system: NCI-H460
OVCAR-3 = system: OVCAR-3
UACC-62 = system: UACC-62
RPMI-8226 = system: RPMI-8226
SK-MEL-5 = system: SK-MEL-5
SK-OV-3 = system: SK-OV-3
KM12 = system: KM12
OVCAR-4 = system: OVCAR-4
SNB-19 = system: SNB-19
UACC-257 = system: UACC-257
IGROV-1 = system: IGROV-1
CAKI-1 = system: CAKI-1
EKVX = system: EKVX
SK-MEL-2 = system: SK-MEL-2
SF-268 = system: SF-268
SF-539 = system: SF-539

Measured: GI50

NS(=O)(=O)c1cc(C(=O)O)c(Cl)c([N+](=O)[O-])c1Cl
inactive: SW-620 > 100 µM | RXF 393 > 100 µM | OVCAR-5 > 100 µM | HCT-116 > 100 µM | NCI-H460 > 100 µM | OVCAR-3 > 100 µM | UACC-62 > 100 µM | RPMI-8226 > 100 µM | SK-MEL-5 > 100 µM | SK-OV-3 > 100 µM | KM12 > 100 µM | OVCAR-4 > 100 µM | SNB-19 > 100 µM | UACC-257 > 100 µM | IGROV-1 > 100 µM | CAKI-1 > 100 µM | EKVX > 100 µM | SK-MEL-2 > 100 µM | SF-268 > 100 µM | SF-539 > 100 µM

CCSc1c2cc(OC)ccc2nc2ccc(OC)cc12
inactive: SW-620 17.7 µM | RXF 393 11.6 µM | OVCAR-5 8.09 µM | HCT-116 6.05 µM | NCI-H460 13.2 µM | OVCAR-3 16.9 µM | UACC-62 10.9 µM | RPMI-8226 4.24 µM | SK-MEL-5 6.65 µM | SK-OV-3 23.3 µM | KM12 11.2 µM | OVCAR-4 11.7 µM | SNB-19 26.2 µM | UACC-257 9.98 µM | IGROV-1 18.3 µM | CAKI-1 9.27 µM | EKVX 9.84 µM | SK-MEL-2 18.8 µM | SF-268 10.9 µM | SF-539 15.3 µM

CC1NOC(=O)C1/N=N/c1ccccc1Cl (stereo not given)
inactive: SW-620 > 100 µM | RXF 393 26.4 µM | OVCAR-5 34.8 µM | HCT-116 37.2 µM | NCI-H460 45.1 µM | OVCAR-3 33.8 µM | UACC-62 31.1 µM | RPMI-8226 20.4 µM | SK-MEL-5 13.8 µM | SK-OV-3 28.3 µM | KM12 64.7 µM | OVCAR-4 39.9 µM | SNB-19 51.1 µM | UACC-257 17.8 µM | IGROV-1 73.1 µM | CAKI-1 25.5 µM | EKVX 88.9 µM | SK-MEL-2 25.4 µM | SF-268 35.1 µM | SF-539 24.5 µM

CCCCCCCCCCOC(=O)c1cc[n+](C)cc1
inactive: SW-620 19.1 µM | RXF 393 19.7 µM | OVCAR-5 13.6 µM | HCT-116 18.3 µM | NCI-H460 21 µM | OVCAR-3 15.6 µM | UACC-62 16.8 µM | RPMI-8226 16.3 µM | SK-MEL-5 19.1 µM | SK-OV-3 16 µM | KM12 16.9 µM | OVCAR-4 18.1 µM | SNB-19 16.2 µM | UACC-257 19.8 µM | IGROV-1 16.6 µM | CAKI-1 16.6 µM | EKVX 16.7 µM | SK-MEL-2 17.3 µM | SF-268 20 µM | SF-539 16.3 µM

Cn1nc(-c2ccc(S(=O)(=O)N/C(=N/c3ccc(Cl)cc3)NN)s2)cc1C(F)(F)F
inactive: SW-620 18.4 µM | RXF 393 11.1 µM | OVCAR-5 15.9 µM | HCT-116 14.9 µM | NCI-H460 19.9 µM | OVCAR-3 19.7 µM | UACC-62 16.9 µM | RPMI-8226 21.3 µM | SK-MEL-5 18.2 µM | SK-OV-3 20.9 µM | KM12 16.6 µM | OVCAR-4 15.9 µM | SNB-19 16.5 µM | UACC-257 19.5 µM | IGROV-1 19.3 µM | CAKI-1 18.7 µM | EKVX 14.8 µM | SK-MEL-2 19.2 µM | SF-268 17.7 µM | SF-539 13.5 µM

CN(Cc1cnc2nc(N)nc(N)c2n1)c1ccc(C(=O)NC(CCC(=O)NCCC(P(=O)(O)O)P(=O)(O)O)C(=O)O)cc1 (stereo not given)
inactive: SW-620 > 23.3 µM | RXF 393 > 100 µM | OVCAR-5 25.1 µM | HCT-116 3.67 µM | NCI-H460 4.35 µM | OVCAR-3 37.2 µM | UACC-62 28.4 µM | RPMI-8226 6.85 µM | SK-MEL-5 43.4 µM | SK-OV-3 1.13 µM | KM12 6.38 µM | OVCAR-4 > 100 µM | SNB-19 > 87.7 µM | UACC-257 > 100 µM | IGROV-1 35.2 µM | CAKI-1 > 25 µM | EKVX 69.5 µM | SK-MEL-2 > 49.5 µM | SF-268 14.2 µM | SF-539 10.3 µM

C=C1C[C@]23C[C@@]1(O)CC[C@H]2[C@@]12C=C[C@H](O)[C@@](C)(C(=O)O1)[C@H]2[C@@H]3C(=O)O [GIBBERELLIN A3]
inactive: SW-620 > 100 µM | RXF 393 > 100 µM | OVCAR-5 > 100 µM | HCT-116 > 100 µM | NCI-H460 > 100 µM | OVCAR-3 > 100 µM | UACC-62 > 100 µM | RPMI-8226 > 100 µM | SK-MEL-5 > 100 µM | SK-OV-3 > 100 µM | KM12 > 100 µM | OVCAR-4 > 100 µM | SNB-19 > 100 µM | UACC-257 > 100 µM | IGROV-1 > 100 µM | CAKI-1 > 100 µM | EKVX > 100 µM | SK-MEL-2 > 100 µM | SF-268 > 100 µM | SF-539 > 100 µM

Source: ChEMBL document CHEMBL1201862, “PubChem BioAssay data set” (2004)
